Assay results reported in PMC3958260 (2014).

How the values were obtained:
[1] = tested on: aptamer # 13_82 (DNA, aptamer) ATACCAGCTTATTCAATTCAGGGCGGTATGAGGCTCGATCAAGGTCGGAGCGAGAATTTTTTCGCGGAGTCGGCTGGATCAGATAGTAAGTGCAATCT; test: bead fluorescence release assay; conditions: 100 mM Na+, 5 mM K+, 2 mM Mg2+, 1 mM Ca2+; 20 mM Tris-HCl pH 7.6, 21 °C; 1 mM compound; release from capture oligo iODN2Sp; single concentration
[2] = tested on: aptamer # 3_7 (DNA, aptamer) ATACCAGCTTATTCAATTGGTGGTAGGATGGGCTCGATCGAGGTCTTCAGTCGGCTCGGTTTAGTTTATGTTCTCCTGTAGATAGTAAGTGCAATCT; test: bead fluorescence release assay; conditions: 100 mM Na+, 5 mM K+, 2 mM Mg2+, 1 mM Ca2+; 20 mM Tris-HCl pH 7.6, 21 °C; 1 mM compound; release from capture oligo iODN2Sp; single concentration
[3] = tested on: aptamer # 11_76 (DNA, aptamer) ATACCAGCTTATTCAATTATGCGGGGATGAGGCTTGATCTGTGGCTCTGATCCATGATCAGTCGTCTTACGTGCGGTCCAGATAGTAAGTGCAATCT; test: bead fluorescence release assay; conditions: 100 mM Na+, 5 mM K+, 2 mM Mg2+, 1 mM Ca2+; 20 mM Tris-HCl pH 7.6, 21 °C; 1 mM compound; release from capture oligo iODN2Sp; single concentration
[4] = tested on: aptamer # 3_19 (DNA, aptamer) ATACCAGCTTATTCAATTAGCCCGGTATTGAGGTCGATCTCTTATCCTATGGCTTGTCCCCCATGGCTCGGTTATATCCAGATAGTAAGTGCAATCT; test: bead fluorescence release assay; conditions: 100 mM Na+, 5 mM K+, 2 mM Mg2+, 1 mM Ca2+, 20 mM Tris-HCl pH 7.6, 21 °C, 1 mM compound, release from capture oligo iODN2Sp; for binding: below 1 pmol threshold; for amount of eluted aptamer DNA: single concentration
[5] = tested on: aptamer # 3_7(1-79) (DNA, aptamer) ATACCAGCTTATTCAATTGGTGGTAGGATGGGCTCGATCGAGGTCTTCAGTCGGCTCGGTTTAGTTTATGTTCTCCTGT; test: bead fluorescence release assay; conditions: 100 mM Na+, 5 mM K+, 2 mM Mg2+, 1 mM Ca2+; 20 mM Tris-HCl pH 7.6, 21 °C; 1 mM compound; release from capture oligo iODN2Sp; single concentration
[6] = tested on: aptamer # 13_82(19-80) (DNA, aptamer) CAGGGCGGTATGAGGCTCGATCAAGGTCGGAGCGAGAATTTTTTCGCGGAGTCGGCTGGATC; test: bead fluorescence release assay; conditions: 100 mM Na+, 5 mM K+, 2 mM Mg2+, 1 mM Ca2+; 20 mM Tris-HCl pH 7.6, 21 °C; 1 mM compound; release from capture oligo iODN2Sp; single concentration
[7] = tested on: aptamer # 13_82(19-80) (DNA, aptamer) CAGGGCGGTATGAGGCTCGATCAAGGTCGGAGCGAGAATTTTTTCGCGGAGTCGGCTGGATC; test: MTP fluorescence release assay; conditions: 100 mM Na+, 5 mM K+, 2 mM Mg2+, 1 mM Ca2+; 20 mM Tris-HCl pH 7.6, 21 °C; release from capture oligo iODN2Sp; elution not above background
[8] = tested on: aptamer # 13_82 (DNA, aptamer) ATACCAGCTTATTCAATTCAGGGCGGTATGAGGCTCGATCAAGGTCGGAGCGAGAATTTTTTCGCGGAGTCGGCTGGATCAGATAGTAAGTGCAATCT; test: fluorescence (bead or MTP assay) or SPR, capture-oligo release; conditions: 100 mM Na+, 5 mM K+, 2 mM Mg2+, 1 mM Ca2+; 20 mM Tris-HCl pH 7.6; release from capture oligo iODN2Sp; micromolar range; apparent
[9] = tested on: aptamer # 11_76 (DNA, aptamer) ATACCAGCTTATTCAATTATGCGGGGATGAGGCTTGATCTGTGGCTCTGATCCATGATCAGTCGTCTTACGTGCGGTCCAGATAGTAAGTGCAATCT; test: as above; conditions: 100 mM Na+, 5 mM K+, 2 mM Mg2+, 1 mM Ca2+; 20 mM Tris-HCl pH 7.6; release from capture oligo iODN2Sp; micromolar range; apparent
[10] = tested on: # 3_19(1-79) (DNA, aptamer) ATACCAGCTTATTCAATTAGCCCGGTATTGAGGTCGATCTCTTATCCTATGGCTTGTCCCCCATGGCTCGGTTATATCC; test: MTP fluorescence release assay; conditions: 100 mM Na+, 5 mM K+, 2 mM Mg2+, 1 mM Ca2+; 20 mM Tris-HCl pH 7.6, 21 °C; release from capture oligo iODN2Sp; elution not above background
[11] = tested on: aptamer # 3_19 (DNA, aptamer) ATACCAGCTTATTCAATTAGCCCGGTATTGAGGTCGATCTCTTATCCTATGGCTTGTCCCCCATGGCTCGGTTATATCCAGATAGTAAGTGCAATCT; test: fluorescence (bead or MTP assay) or SPR, capture-oligo release; conditions: 100 mM Na+, 5 mM K+, 2 mM Mg2+, 1 mM Ca2+; 20 mM Tris-HCl pH 7.6; release from capture oligo iODN2Sp; micromolar range; apparent
[12] = tested on: aptamer # 13_82(19-80) (DNA, aptamer) CAGGGCGGTATGAGGCTCGATCAAGGTCGGAGCGAGAATTTTTTCGCGGAGTCGGCTGGATC; test: as above; conditions: 100 mM Na+, 5 mM K+, 2 mM Mg2+, 1 mM Ca2+; 20 mM Tris-HCl pH 7.6; release from capture oligo iODN2Sp; micromolar range; apparent
[13] = tested on: aptamer # 3_7(1-79) (DNA, aptamer) ATACCAGCTTATTCAATTGGTGGTAGGATGGGCTCGATCGAGGTCTTCAGTCGGCTCGGTTTAGTTTATGTTCTCCTGT; test: as above; conditions: 100 mM Na+, 5 mM K+, 2 mM Mg2+, 1 mM Ca2+; 20 mM Tris-HCl pH 7.6; release from capture oligo iODN2Sp; micromolar range; apparent

For `CCN[C@@H]1C[C@H](N)[C@@H](O[C@H]2OC(CN)=CC[C@H]2N)[C@H](O)[C@H]1O[C@H]1OC[C@](C)(O)[C@H](NC)[C@H]1O`, the “amount of eluted aptamer DNA” value [1] was 1.01 pmol, the “amount of eluted aptamer DNA” value [2] was 1.03 pmol and the “amount of eluted aptamer DNA” value [3] was 1.03 pmol.

`NC[C@H]1O[C@H](O[C@H]2[C@H](O)[C@@H](O[C@H]3O[C@H](CO)[C@@H](O)[C@H](N)[C@H]3O)[C@H](N)C[C@@H]2N)[C@H](N)C[C@@H]1O` was tested, and the binding [4] was “no”, the “amount of eluted aptamer DNA” value [1] was 2.78 pmol and the “amount of eluted aptamer DNA” value [5] was 1.91 pmol. For the same molecule, the “amount of eluted aptamer DNA” value [6] was 1.13 pmol and the “amount of eluted aptamer DNA” value [3] was 4.03 pmol.

With `CN[C@@H]1[C@@H](O[C@H]2O[C@H](CO)[C@@H](N)[C@H](O)[C@H]2O)O[C@H]2C[C@@H](N)[C@@H](O[C@H]3[C@H](O)[C@@H](O)[C@H](N)C[C@@H]3N)O[C@@H]2[C@@H]1O` the “amount of eluted aptamer DNA” value [4] was 2.27 pmol, the “amount of eluted aptamer DNA” value [1] was 3.40 pmol and the “amount of eluted aptamer DNA” value [5] was 1.68 pmol. The “amount of eluted aptamer DNA” value [2] was 3.04 pmol and the “amount of eluted aptamer DNA” value [3] was 3.04 pmol.

`NC[C@@H]1O[C@H](O[C@H]2[C@@H](O)[C@H](O[C@@H]3[C@@H](O)[C@H](N)C[C@H](N)[C@H]3O[C@H]3O[C@H](CO)[C@@H](O)[C@H](O)[C@H]3N)O[C@@H]2CO)[C@H](N)[C@@H](O)[C@@H]1O` was tested, and the binding [7] was “no”.

With `NC[C@H]1O[C@H](O[C@H]2[C@H](O)[C@@H](O[C@H]3O[C@H](CO)[C@@H](O)[C@H](N)[C@H]3O)[C@H](N)C[C@@H]2N)[C@H](O)[C@@H](O)[C@@H]1O` the “amount of eluted aptamer DNA” value [4] was 3.02 pmol, the “amount of eluted aptamer DNA” value [1] was 6.85 pmol and the dissociation constant [8] was 5.1 µM. For the same molecule, the dissociation constant [9] was 9.6 µM, the binding [10] was “no” and the dissociation constant [11] was 3.9 µM. The “amount of eluted aptamer DNA” value [5] was 10.44 pmol, the “amount of eluted aptamer DNA” value [2] was 4.62 pmol and the dissociation constant [12] was 5.4 µM. The “amount of eluted aptamer DNA” value [6] was 6.87 pmol, the dissociation constant [13] was 146 µM and the “amount of eluted aptamer DNA” value [3] was 5.02 pmol.

`NC[C@H]1O[C@H](O[C@H]2[C@H](O)[C@@H](O[C@H]3O[C@H](CO)[C@@H](O)[C@H](N)[C@H]3O)[C@H](N)C[C@@H]2N)[C@H](N)[C@@H](O)[C@@H]1O` was tested, and the binding [4] was “no”, the “amount of eluted aptamer DNA” value [1] was 7.22 pmol and the “amount of eluted aptamer DNA” value [5] was 8.04 pmol. The “amount of eluted aptamer DNA” value [2] was 4.42 pmol, the “amount of eluted aptamer DNA” value [6] was 3.09 pmol and the “amount of eluted aptamer DNA” value [3] was 5.21 pmol.
